Source: patent publication US20230332145A1, “BIFUNCTIONAL MOLECULES AND METHODS OF USING THEREOF” (Flagship Pioneering, Inc., priority 2020, published 2023)
In the oligonucleotide strings, read from the 5' end, every base follows the letter of its sugar. An asterisk marks phosphorothioate; unmarked linkages are phosphodiester. Other units and linkages are bracketed, terminal groups are in braces. A string of capitals states the bases alone. e = 2'-O-(2-methoxyethyl) (MOE); [5mC] = 5-methylcytosine

How the values were obtained:
[1] = tested on: BET family of bromodomain proteins; conditions: cited from earlier work
MYC expression = MYC expression by qPCR after RNAiMax transfection of HEK293T cells; assay type: cell-based, human; conditions: for MYC expression change, linker comparison: 400 to 3.125 nM
Procedure: HEK293T cells were seeded at 30k cells/well in a 96 well tissue culture vessel day before transfection. […] Transfected cells were allowed to recover and were harvested after 24 hours. MYC expression was measured by RNA level using qPCR analysis after transfection with each of the bi-functional molecule or control molecules. Cell samples for qPCR analysis were prepared by Cells to Ct 1 Step TaqMan Kit (ThermoFisher A25602) following manufractuer’s recommendations. qPCR assays were performed using Cells to Ct qPCR master mix, gene specific TaqMan probe (ThermoFisher), and Cells to Ct cell lysate. Relative levels of MYC were normalized to β-actin as a stably expressed control. MYC TaqMan probe: ThermoFisher Assay ID Hs00153408_ml; ACTB TaqMan probe: ThermoFisher Assay ID Hs01060665_g1. During qPCR amplification, FAM fluorescence intensity for each target gene was recorded by QuantStudio7 qPCR instrument (ThermoFisher Scientific) as a measurement of the amount of double-stranded DNA produced during each PCR cycle. Ct values for each gene in each sample were computed by the instrument software based on the amplification curves, and used to determine relative expression values for target and β-actin in each sample.

MYC protein = assay: MYC protein, FRET based ELISA (Human c-Myc Cell-based kit) in HEK293T cells; conditions: 200 nM, 24 hours
Procedure: PVT1 ASO1-JQ1 and control molecules were transfected to HEK293T cells at 400, 200, 100, and 50 nM with RNAiMax. PVT1 ASO1-JQ1:RNAiMax ratios in transfection are: 400 nM: 1.2 ul, 200 nM:0.6 ul, 100 nM:0.3 ul, 50 nM:0.15 ul. Cells were harvested 24 hours after transfection and MYC expression changes was monitored by qPCR and by enzyme-linked immunosorbent assay (ELISA). […] For a fluorescence resonance energy transfer (FRET) based ELISA assays, cell samples were prepared by Human c-Myc Cell-based kit (Cisbio # 63ADK053PEH) following manufractuer’s recommendation. MYC protein is detected in a sandwich assay using two specific antibodies, labeled with Europium Cryptate (donor) and with d2 (acceptor). FRET signal was read with Varioskan LUX Multimode Microplate Reader (ThermoFisher) with a 6 hr kinetic read.

SCN1A expression = SCN1A expression by qPCR after transfection of SK-N-AS cells; assay type: cell-based, human; conditions: 100 to 3.125 nM, 48 hours
Procedure: SCN1A-ASO1 shown in Table 5A was designed against the exonic region of SCN1A mRNA. SCN1A ASO1-Linker1-JQ1 was transfected to SK-N-AS cells at 100, 50, 25, 12.5, 6.25, and 3.125 nM with RNAiMax. SCN1A ASO1-JQ1:RNAiMax ratios in transfection were: 100 nM:0.3 ul, 50 nM and below:0.15 ul. Cells were harvested 48 hours after transfection and SCN1A expression changes were monitored by qPCR. TaqMan probe used in the assay for quantitation: SCN1A Hs00374696_ml (ThermoFisher), GAPDH Hs02786624_g1 (ThermoFisher).
SCN1A ASO1-Linker1-iBET762 was transfected to SK-N-AS cells at 100, 50, 25, 12.5, 6.25, and 3.125 nM with RNAiMax. SCN1A ASO1-iBET762:RNAiMax ratios in transfection are: 100 nM:0.3 ul, 50 nM and below:0.15 ul. Cells were harvested 48 hours after transfection and SCN1A expression changes were monitored by qPCR. TaqMan probe used in the assay for quantitation: SCN1A Hs00374696_m1 (ThermoFisher), GAPDH Hs02786624_g1 (ThermoFisher). […] SCN1A encodes for the alpha-1 subunit of the voltage-gated sodium channel (Na(V)1.1), and patients with SCN1A loss of function mutations suffers from Dravet syndrome, a neurological disorder.

SYNGAP1 expression = SYNGAP1 expression by qPCR after transfection of HEK293T cells; assay type: cell-based, human; conditions: 200 nM, 48 hours
Procedure: SYNGAP1 ASO1-JQ1 to SYNGAP1 ASO4-JQ1 were transfected to HEK293T cells at 200, and 67 nM with RNAiMax. SYNGAP1 ASO-JQ1:RNAiMax ratios in transfection are: 200 nM:0.6 ul, 67 nM:0.2 ul. Cells were harvested 48 hours after transfection and SYNGAP1 expression changes was monitored by qPCR. TaqMan probe used in the assay for quantitation: SYNGAP1: Assay ID Hs00405348_m1 (ThermoFisher), ACTB Assay ID Hs01060665_g1(ThermoFisher).

[2] = HEK293T, 400, 133, 44, 15 nM, 24 hours

In the case of (-)JQ1, the “weaker biochemical activity as compared to JQ1” value [1] is listed as over 100 x.
In the case of “PVT1 ASO1-JQ1: PVT1 ASO1 (SEQ ID NO: 7) conjugated to JQ1 with linker 2 (eG*eT*eA*eA*eG*eT*eG*eG*eA*eA*eT*eT*e[5mC]*e[5mC]*eA*eG*eT*eT*eG; JQ1 conjugated via linker 2, further chemistry not fully specified)”, the “MYC response at top dose of titration” value (MYC expression; HEK293T, 200 nM, 24 hours) is reported as “slight decrease of MYC response”, the “MYC expression change upon dose titration” value (MYC expression; HEK293T, 200, 100, 50, 25, 12.5, 6.25, 3.125 nM, 24 hours) is reported as “dose dependent response” and the “MYC expression change (RNA transcripts)” value (MYC expression; HEK293T, 400, 200, 100, 50 nM, 24 hours) is reported as “increase of MYC RNA transcripts”. For the same substance, the “MYC expression change, linker comparison” value (MYC expression; HEK293T, 24 hours) was “both active and increased MYC expression to similar levels”, the “increase in MYC expression” value (MYC expression; HEK293T, transfected at 400, 200, 100, 50 nM, harvested after 24 hours) was “about 4 fold” and the “MYC protein level increase” value (MYC protein) was “about 2 fold”.
In the case of “PVT1 ASO24-JQ1: PVT1 ASO24 (SEQ ID NO: 30) conjugated to JQ1 with linker 2 (CATTGAAGGATCATGGTCAT; conjugated to JQ1 via linker 2, modification pattern not given here)”, the MYC expression change (MYC expression; [2]) is reported as “increased MYC expression level similar to PVT1 ASO1-JQ1”.
With “PVT1 ASO25-JQ1: PVT1 ASO25 (SEQ ID NO: 31) conjugated to JQ1 with linker 2 (TTATAGACTAGATTGGCCAG; conjugated to JQ1 via linker 2, modification pattern not given here)” the MYC expression change (MYC expression; [2]) was “increased MYC expression level similar to PVT1 ASO1-JQ1”.
With “PVT1-ASO1-Linker1-JQ1: PVT1 ASO1 (SEQ ID NO: 7) conjugated to JQ1 with linker 1 (eG*eT*eA*eA*eG*eT*eG*eG*eA*eA*eT*eT*e[5mC]*e[5mC]*eA*eG*eT*eT*eG; JQ1 conjugated via linker 1, further chemistry not fully specified)” the “MYC expression change, linker comparison” value (MYC expression; HEK293T, 24 hours) was “both active and increased MYC expression to similar levels”.
With “PVT1-Scr1: JQ1 conjugate of partially scrambled PVT1 ASO1 sequence scr1 (SEQ ID NO: 63) (eT*eG*eA*eA*eG*eT*eG*eG*eA*eA*eT*eT*e[5mC]*e[5mC]*eA*eG*eT*eT*eG; JQ1 conjugate, further chemistry not fully specified)” the MYC expression change (MYC expression; HEK293T, 100 nM, 24 hours) was “less impact on the activities”.
In the case of “PVT1-Scr4: JQ1 conjugate of partially scrambled PVT1 ASO1 sequence scr4 (SEQ ID NO: 66) (eG*eT*eA*eA*eG*eT*eG*eG*eA*eA*eT*eT*e[5mC]*e[5mC]*eA*eT*eT*eG*eG; JQ1 conjugate, further chemistry not fully specified)”, the MYC expression change (MYC expression; HEK293T, 100 nM, 24 hours) is reported as “less impact on the activities”.
For “PVT1-Scr8: JQ1 conjugate of partially scrambled PVT1 ASO1 sequence scr8 (SEQ ID NO: 70) (eG*eT*eA*eA*eG*eT*eG*eG*eA*eA*eT*eT*e[5mC]*e[5mC]*eA*eT*eG*eG*eT; JQ1 conjugate, further chemistry not fully specified)”, the MYC expression change (MYC expression; HEK293T, 100 nM, 24 hours) was “less impact on the activities”.
For “SCN1A ASO1-JQ1: SCN1A ASO1 (SEQ ID NO: 46), 5′ Azide-N modified LNA mixmer, conjugated to JQ1 with linker 1 (AGTAAGACTGGGGTTGTT; 5' azide, LNA mixmer, JQ1 via linker 1, chemistry not fully specified)”, the “increase in SCN1A expression” value (SCN1A expression) was “about 2 fold”.
With “SYNGAP1 ASO2-JQ1: SYNGAP1 ASO2 (SEQ ID NO: 48) conjugated to JQ1 using Linker 2 (ATCACCTCCTATAGCTCCT; 5' amino modified, conjugated to JQ1 via linker 2, further chemistry not given here)” the “increase in SYNGAP1 expression” value (SYNGAP1 expression) was “about 2 fold”.
